Measured values taken from PMC7356228, “Alvaxanthone, a Thymidylate Synthase Inhibitor with Nematocidal and Tumoricidal Activities” (Molecules, 2020).
Read-outs that look alike come from different tables or passages of the source.

How the values were obtained:
C. elegans [1] = conditions: read-out: LC50 (C. elegans population growth); previously found; cited from earlier work
[2] = system: SCC-15 human squamous carcinoma cells; experiment: Cytotoxicity, neutral red uptake (NR) assay; type: cell-based; conditions: Homo sapiens
Experimental: (§1) Biological effect of alvaxanthone and rheediaxanthone B on normal (BJ) and cancer cells (U-118 MG and SCC-15) was estimated using two viability assays, the neutral red uptake (NR) and tetrazolium salts reduction (XTT) assays.
(§2) Human glioblastoma cells U-118 MG (ATCC® HTB-15), human squamous carcinoma cells SCC-15 (ATCC® CRL-1623), and normal human skin fibroblasts (ATCC® CRL-2522) were grown, their morphology checked, and number and viability estimated as earlier presented.
(§3) Influence of selected compounds on cells was tested by performing the cytotoxicity (NR and XTT) assays, proliferation assay, cell adhesion assay, cell migration assay, determination of intracellular ATP level, and apoptosis assay as previously reported.

[3] = system: U-118 MG human glioblastoma cells; experiment: Cytotoxicity, neutral red uptake (NR) assay; type: cell-based
Experimental: as §1, §2, §3

SCC-15 cells [4] = experiment: Cell adhesion, crystal violet assay; type: cell-based, human; conditions: 48-h treatment
Experimental: (§4) Cancer metastasis, resulting from an impairment of adhesion between cancer cells and the extracellular matrix may cause cell migration from a primary tumor into distant parts of an organism. The cristal violet assay was used to examine alvaxanthone and rheediaxanthone B ability to influence cellular adhesion.
(§5) Figure 3 Influence of alvaxanthone or rheediaxanthone B on BJ, U-118 MG, and SCC-15 cells adhesion after 48-h treatment. The crystal violet assay was used. Results are medians of triplicate assays of three independent experiments expressed as a % of non-treated controls. The whiskers are lower (25%) and upper (75%) quartile ranges. * p ≤ 0.05, Kruskal–Wallis test (against non-treated control).
as §3

BJ cells [5] = experiment: Cell adhesion, crystal violet assay; type: cell-based, human; conditions: 48-h treatment
Experimental: as §4, §5, §3

U-118 MG cells [6] = experiment: Cell adhesion, crystal violet assay; type: cell-based, human; conditions: 48-h treatment
Experimental: as §4, §5, §3

mTS = molecular target: T1, mTS (Mus musculus, UniProt P07607); experiment: Inhibition of TS-catalyzed reaction (tritium release from [5-3H]dUMP); type: biochemical; conditions: for remaining activity at 10 µM: compound 10 µM
T1 construct: made in house
Text: (§6) The recombinant human, rat, mouse, T. spiralis and C. elegans TS proteins were produced, purified and separated into phosphorylated and non-phosphorylated fraction, as previously described. TS activity was monitored, following tritium release from [5-^3H]dUMP, and its inhibition studied as earlier reported.

hTS = molecular target: T2, hTS (Homo sapiens, UniProt P04818); experiment: as above; type: biochemical; conditions: for remaining activity at 10 µM: compound 10 µM
T2 construct: made in house
Text: as §6

[7] = system: BJ normal human skin fibroblasts; experiment: Cytotoxicity, neutral red uptake (NR) assay; type: cell-based; conditions: Homo sapiens, Skin fibroblast
Experimental: as §1, §2, §3

[8] = system: BJ, U-118 MG and SCC-15 cells; experiment: NR assay, summary over the three cell lines; type: cell-based, human; conditions: Homo sapiens, 48 h, span over BJ
Experimental: as §1
Thus, alvaxanthone may be damaging mitochondria and impairing their metabolism exerting one of possible mechanisms active in destroying cancer cells. Changes of cell morphology in dependence on increasing alvaxanthone and rheediaxanthone B concentration were also recorded. While the glioma and squamous carcinoma cells formed clusters, lost their adhesion, shrank, and accumulated less NR dye, normal fibroblasts preserved rather normal shapes but the amount of the neutral red dye and confluence of cells decreased. In addition, a lower number of BJ cells was detected (Figure 1B).
as §3

SCC-15 cells [9] = experiment: Intracellular ATP level (CellTiterGlo); type: cell-based, human; conditions: 48-h incubation, squamous carcinoma cells
Experimental: (§7) Figure 4 Changes of caspase-3/7 activities and intracellular ATP level in BJ, U-118 MG, and SCC-15 cells after 48-h incubation with 5–40 µM alvaxanthone or rheediaxanthone B. Median results are presented of three independent experiments, each performed in triplicate. The whiskers are lower (25%) and upper (75%) quartile ranges.
(§8) On the other hand, rheediaxanthone B caused a reduction of ATP level down to around 30% in glioma cells and fibroblasts, and to 20% in squamous carcinoma cells (Figure 4). In general, with increasing Caspase-3/7 activity the ATP level was decreasing, in accord with the results of Reference.
as §3

BJ cells [10] = experiment: Intracellular ATP level (CellTiterGlo); type: cell-based, human; conditions: 48-h incubation, fibroblasts
Experimental: as §7, §8, §3

U-118 MG cells [11] = experiment: Intracellular ATP level (CellTiterGlo); type: cell-based, human; conditions: 48-h incubation, glioma cells
Experimental: as §7, §8, §3

C. elegans [12] = experiment: Toxicity to C. elegans (population growth); conditions: for LC50: Caenorhabditis elegans, read-out: LC50 (reduction of growth of the nematode population)
Experimental: C. elegans was maintained as previously described. The effect of the compounds studied on C. elegans population growth was determined as earlier presented.

TsTS = TsTS (Trichinella spiralis, UniProt Q9NDD3); experiment: Inhibition of TS-catalyzed reaction (tritium release from [5-3H]dUMP); type: biochemical, T. spiralis; conditions: for remaining activity at 100 µM: compound 100 µM; for remaining activity at 1000 µM: compound 1000 µM
Text: as §6

[13] = system: caspases 3/7 in BJ, U-118 MG, and SCC-15 cells; experiment: Apo-ONE Homogenous Caspase-3/7 Assay; type: cell-based, human; conditions: 48 h, 5–40 µM, span over the three cell lines
Experimental: as §7
The Apo-ONE® Homogenous Caspase-3/7 Assay provides a measurement of the executioner caspases 3/7 activation, characteristic for apoptosis induced via both the intrinsic and extrinsic pathway. It was used to determine apoptosis induction in cells by alvaxanthone and rheediaxanthone B. In each of the three cell lines, compared to the respective non-treated control, treatment with each of the two compounds for 48 h led to a significant activation of the caspases 3/7 (by 2- to 10-fold for alvaxanthone and 8- to 18-fold for rheediaxanthone B), the effect being stronger in cancer than normal cells (Figure 4).
as §3

CeTS = molecular target: T3, CeTS (Caenorhabditis elegans, UniProt Q9Y052); experiment: Inhibition of TS-catalyzed reaction (tritium release from [5-3H]dUMP); type: biochemical, C. elegans; conditions: for remaining activity at 10 µM: compound 10 µM; for remaining activity at 100 µM: compound 100 µM
T3 sequence (Q9Y052 1-315): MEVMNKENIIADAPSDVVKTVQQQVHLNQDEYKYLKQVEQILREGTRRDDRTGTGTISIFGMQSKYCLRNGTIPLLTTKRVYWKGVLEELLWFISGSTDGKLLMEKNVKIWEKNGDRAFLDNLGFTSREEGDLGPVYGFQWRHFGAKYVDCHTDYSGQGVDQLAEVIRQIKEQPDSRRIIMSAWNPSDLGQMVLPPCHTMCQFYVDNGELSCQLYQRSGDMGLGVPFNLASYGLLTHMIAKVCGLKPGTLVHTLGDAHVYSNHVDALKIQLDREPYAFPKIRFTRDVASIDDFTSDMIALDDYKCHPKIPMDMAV
Text: as §6

[14] = SCC-15, neutral red assay, read-out: IC50
[15] = neutral red assay, U-118 MG, read-out: IC50
[16] = 20 µM dUMP and 50 µM meTHF, experiment not repeated, read-out: IC50
[17] = compound 100 µM, 20 µM dUMP, 50 µM meTHF, read-out: % Remaining Activity
[18] = neutral red assay, BJ, read-out: IC50
[19] = 20 µM dUMP, 50 µM meTHF, read-out: % Remaining Activity
[20] = 20 µM dUMP, 50 µM meTHF, read-out: IC50 Assessment
[21] = IC50 Assessment, 20 µM dUMP, 50 µM meTHF
[22] = IC50 Assessment, 20 µM dUMP, 250 µM meTHF
[23] = compound 1000 µM, 20 µM dUMP, 50 µM meTHF, read-out: % Remaining Activity

TsTS, sequence (Q9NDD3 entry or part of it): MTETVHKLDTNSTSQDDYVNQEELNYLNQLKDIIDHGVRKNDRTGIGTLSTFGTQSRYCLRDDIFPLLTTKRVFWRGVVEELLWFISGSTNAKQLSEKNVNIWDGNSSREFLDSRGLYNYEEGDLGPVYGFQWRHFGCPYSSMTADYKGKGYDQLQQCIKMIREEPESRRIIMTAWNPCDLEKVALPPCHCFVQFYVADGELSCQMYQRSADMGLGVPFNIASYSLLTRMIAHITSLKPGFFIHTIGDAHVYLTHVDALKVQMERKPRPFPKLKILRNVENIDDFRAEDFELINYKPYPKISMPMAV
T2 sequence (P04818 whole entry): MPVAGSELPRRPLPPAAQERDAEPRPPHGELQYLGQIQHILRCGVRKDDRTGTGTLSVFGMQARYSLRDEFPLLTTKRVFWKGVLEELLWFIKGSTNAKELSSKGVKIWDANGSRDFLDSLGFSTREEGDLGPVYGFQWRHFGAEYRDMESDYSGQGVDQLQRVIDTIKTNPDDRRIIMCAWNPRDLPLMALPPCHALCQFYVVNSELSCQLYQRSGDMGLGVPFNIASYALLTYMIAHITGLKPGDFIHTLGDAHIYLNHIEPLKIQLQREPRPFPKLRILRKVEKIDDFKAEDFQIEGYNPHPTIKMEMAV
T1 sequence (P07607 whole entry): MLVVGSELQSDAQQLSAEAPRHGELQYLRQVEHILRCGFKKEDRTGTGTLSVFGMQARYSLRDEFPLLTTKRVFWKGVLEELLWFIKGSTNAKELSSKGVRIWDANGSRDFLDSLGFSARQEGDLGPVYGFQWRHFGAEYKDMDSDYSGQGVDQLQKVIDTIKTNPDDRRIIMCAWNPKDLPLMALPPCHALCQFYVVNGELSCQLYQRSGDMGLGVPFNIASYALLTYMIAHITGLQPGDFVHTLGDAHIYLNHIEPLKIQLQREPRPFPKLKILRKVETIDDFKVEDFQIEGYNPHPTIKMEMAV

COC(=O)Nc1nc2ccc(C(=O)c3ccccc3)cc2[nH]1 [mebendazole]
LC50 (C. elegans [1]): 4 µM

C=CC(C)(C)c1c2c(c3oc4c(O)c(O)ccc4c(=O)c3c1O)C(C)(C)C(C)O2 (stereo not drawn) [Rheediaxanthone B (17), Rheediaxanthone B]
IC50 [2, 14]: 9.2 µM
IC50 [3, 15]: 4.75 µM
concentration at which reduction of adhesion is significant/apparent (SCC-15 cells [4]): 5 µM
concentration at which reduction of adhesion is significant/apparent (BJ cells [5]): 5 µM
concentration at which reduction of adhesion is significant/apparent (U-118 MG cells [6]): 10 µM
IC50 (mTS; [16]): 14.3 µM
remaining activity at 10 µM (mTS; 20 µM dUMP, 50 µM meTHF): 56%
remaining activity at 100 µM (mTS; [17]): 2%
IC50 (hTS; 20 µM dUMP and 50 µM meTHF, mean ± S.E.M. (N=3) for alvaxanthone, rheediaxanthone B not repeated, read-out: IC50): 17.9 µM
remaining activity at 10 µM (hTS; 20 µM dUMP, 50 µM meTHF): 59%
remaining activity at 100 µM (hTS; [17]): 5%
IC50 [7, 18]: 5.5 µM
IC50 [8]: < 10 µM
ATP level reduced down to (SCC-15 cells [9]): 20%
ATP level reduced down to (BJ cells [10]): around 30%
ATP level reduced down to (U-118 MG cells [11]): around 30%
LC50 (C. elegans [12]): 16 ± 10.2 µM
IC50 (TsTS; IC50, 20 µM dUMP and 50 µM meTHF, mean ± S.E.M. (N=3) for alvaxanthone, rheediaxanthone B not repeated): 50.8 µM
remaining activity at 10 µM (TsTS; compound 10 µM, 20 µM dUMP, 50 µM meTHF): 68%
remaining activity at 100 µM (TsTS; 20 µM dUMP, 50 µM meTHF): 40%
activation of the caspases 3/7 compared to non-treated control [13]: 8- to 18 fold
IC50 (CeTS; [16]): 11.4 µM
remaining activity at 10 µM (CeTS; 20 µM dUMP, 50 µM meTHF): 59%
remaining activity at 100 µM (CeTS; [19]): 14%

COc1ccc2oc3ccccc3c(=O)c2c1 [2-OMe-Xanthone (20), 2-OMe-Xanthone]
IC50 [2]: > 40 µM
IC50 ([3]; U-118-MG): > 40 µM
remaining activity at 1000 µM (mTS): 84%
IC50 (mTS; [20]): > 1000 µM
remaining activity at 1000 µM (hTS): 88%
IC50 (hTS; [20]): > 1000 µM
IC50 [7]: > 40 µM
LC50 (C. elegans [12]): 33.8 ± 2.1 µM
IC50 (TsTS; [21]): > 1000 µM
remaining activity at 1000 µM (TsTS; 20 µM dUMP, 50 µM meTHF): 92%
remaining activity at 1000 µM (CeTS): 95%
IC50 (CeTS; [21]): > 1000 µM

COc1c(O)cc2oc3ccccc3c(=O)c2c1O [1,3-OH-2-OMe-Xanthone (16), 1,3-OH-2-OMe-Xanthone]
IC50 [2]: > 40 µM
IC50 ([3]; U-118-MG): > 40 µM
remaining activity at 100 µM (mTS): 67%
remaining activity at 1000 µM (mTS): 32%
remaining activity at 100 µM (hTS): 54%
remaining activity at 1000 µM (hTS): 27%
IC50 [7]: > 40 µM
IC50 (TsTS; [21]): > 100 µM
IC50 (TsTS; [22]): > 100 µM
remaining activity at 100 µM (TsTS; 20 µM dUMP, 50 µM meTHF): 82%
remaining activity at 100 µM (TsTS; 20 µM dUMP, 250 µM meTHF): 92%
remaining activity at 1000 µM (TsTS; 20 µM dUMP, 50 µM meTHF): 32%
remaining activity at 1000 µM (TsTS; 20 µM dUMP, 250 µM meTHF): 23%
remaining activity at 1000 µM (CeTS): 65%
IC50 (CeTS; [22]): > 1000 µM

COc1ccc2oc3cccc(O)c3c(=O)c2c1 [1-OH-7-OMe-Xanthone (19), 1-OH-7-OMe-Xanthone]
IC50 [2, 14]: > 40 µM
IC50 [3, 15]: 40 µM
IC50 (mTS; [20]): > 1000 µM
remaining activity at 1000 µM (mTS; [23]): 94%
IC50 (hTS; [20]): > 1000 µM
remaining activity at 1000 µM (hTS; [23]): 100%
IC50 [7, 18]: > 40 µM
IC50 (TsTS; [21]): > 1000 µM
remaining activity at 1000 µM (TsTS; 20 µM dUMP, 50 µM meTHF): 89%
IC50 (CeTS; [20]): > 1000 µM
remaining activity at 1000 µM (CeTS; [23]): 81%

CC1Oc2c(c3c(c4oc5c(O)c(O)ccc5c(=O)c24)C(C)(C)C(C)O3)C1(C)C (stereo not drawn) [Rheediaxanthone C (18), Rheediaxanthone C]
IC50 [2, 14]: 11 µM
IC50 [3, 15]: 18.3 µM
remaining activity at 10 µM (mTS; 20 µM dUMP, 50 µM meTHF): 77%
remaining activity at 100 µM (mTS; [17]): 39%
IC50 (hTS; [20]): > 100 µM
remaining activity at 100 µM (hTS; [17]): 57%
IC50 [7, 18]: 5.95 µM
toxicity for the worm (C. elegans [12]; in vivo): does not show toxicity for the worm
IC50 (TsTS; [21]): > 100 µM
remaining activity at 100 µM (TsTS; 20 µM dUMP, 50 µM meTHF): 73%
IC50 (CeTS; [20]): > 100 µM
remaining activity at 100 µM (CeTS; [19]): 71%

COc1c(O)cc2oc3cc(O)c(CC=C(C)C)c(O)c3c(=O)c2c1CC=C(C)C [α-Mangostin (21), α-Mangostin, reference compound]
LC50 (C. elegans [1]): 3.8 µM
remaining activity at 10 µM (mTS; 20 µM dUMP, 50 µM meTHF): 75%
remaining activity at 100 µM (mTS; [17]): 5%
remaining activity at 10 µM (hTS; 20 µM dUMP, 50 µM meTHF): 89%
remaining activity at 100 µM (hTS; [17]): 19%
IC50 (TsTS; [21]): > 100 µM
remaining activity at 100 µM (TsTS; 20 µM dUMP, 50 µM meTHF): 85%
remaining activity at 10 µM (CeTS; 20 µM dUMP, 50 µM meTHF): 79%
remaining activity at 100 µM (CeTS; [19]): 27%
